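Following 48 hours of exposure in 96-well plates, responses at five concentrations were used to interpolate endpoints linearly. Definition used: TGI = concentration required for complete inhibition of growth.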
Columns and labels:
Test in all cases: NCI tumour cell line growth inhibition, 48 h
RXF 393 renal = tested on: RXF 393 renal
SK-MEL-28 melanoma = tested on: SK-MEL-28 melanoma
HCT-15 colon = tested on: HCT-15 colon
SF-539 CNS = tested on: SF-539 CNS
P388/ADR leukemia = tested on: P388/ADR leukemia
XF 498 CNS = tested on: XF 498 CNS
MCF7 breast = tested on: MCF7 breast
OVCAR-3 ovarian = tested on: OVCAR-3 ovarian
DMS 273 small cell lung = tested on: DMS 273 small cell lung
EKVX NSCLC = tested on: EKVX NSCLC
KM12 colon = tested on: KM12 colon
OVCAR-8 ovarian = tested on: OVCAR-8 ovarian
HOP-62 NSCLC = tested on: HOP-62 NSCLC
NCI-H522 lung = tested on: NCI-H522 lung
A549 NSCLC = tested on: A549 NSCLC
KM20L2 colon = tested on: KM20L2 colon
CAKI-1 renal = tested on: CAKI-1 renal
COLO 205 colon = tested on: COLO 205 colon
NCI-H460 lung = tested on: NCI-H460 lung
HOP-18 NSCLC = tested on: HOP-18 NSCLC
DLD-1 colon = tested on: DLD-1 colon
NCI/ADR-RES ovarian = tested on: NCI/ADR-RES ovarian
SNB-78 CNS = tested on: SNB-78 CNS
SW-620 colon = tested on: SW-620 colon
SK-MEL-5 melanoma = tested on: SK-MEL-5 melanoma
UACC-62 melanoma = tested on: UACC-62 melanoma
SNB-19 CNS = tested on: SNB-19 CNS
NCI-H23 lung = tested on: NCI-H23 lung
A498 renal = tested on: A498 renal
OVCAR-4 ovarian = tested on: OVCAR-4 ovarian
DMS 114 small cell lung = tested on: DMS 114 small cell lung
M19-MEL melanoma = tested on: M19-MEL melanoma
HCC-2998 colon = tested on: HCC-2998 colon
K-562 leukemia = tested on: K-562 leukemia
MALME-3M melanoma = tested on: MALME-3M melanoma
SF-295 CNS = tested on: SF-295 CNS
P388 leukemia = tested on: P388 leukemia
SF-268 CNS = tested on: SF-268 CNS
UO-31 renal = tested on: UO-31 renal
SN12C renal = tested on: SN12C renal
MOLT-4 leukemia = tested on: MOLT-4 leukemia
SNB-75 CNS = tested on: SNB-75 CNS
HCT-116 colon = tested on: HCT-116 colon
IGROV1 ovarian = tested on: IGROV1 ovarian
CCRF-CEM leukemia = tested on: CCRF-CEM leukemia
SK-OV-3 ovarian = tested on: SK-OV-3 ovarian
HOP-92 NSCLC = tested on: HOP-92 NSCLC
HT29 colon = tested on: HT29 colon
OVCAR-5 ovarian = tested on: OVCAR-5 ovarian
RPMI-8226 leukemia = tested on: RPMI-8226 leukemia
LOX IMVI melanoma = tested on: LOX IMVI melanoma
NCI-H226 lung = tested on: NCI-H226 lung
SK-MEL-2 melanoma = tested on: SK-MEL-2 melanoma
U251 CNS = tested on: U251 CNS
UACC-257 melanoma = tested on: UACC-257 melanoma
SN12K1 renal = tested on: SN12K1 renal
HL-60(TB) leukemia = tested on: HL-60(TB) leukemia
ACHN renal = tested on: ACHN renal
M14 melanoma = tested on: M14 melanoma
RXF-631 renal = tested on: RXF-631 renal
SR leukemia = tested on: SR leukemia
TK-10 renal = tested on: TK-10 renal
LXFL 529 NSCLC = tested on: LXFL 529 NSCLC

Compound: O=C(O)CCCCCCCCC(=O)O
- TGI (RXF 393 renal): > 500 µM
- TGI (SK-MEL-28 melanoma): > 500 µM
- TGI (HCT-15 colon): > 500 µM
- TGI (SF-539 CNS): > 79.3 µM
- TGI (P388/ADR leukemia): > 500 µM
- TGI (XF 498 CNS): > 50 µM
- TGI (MCF7 breast): > 500 µM
- TGI (OVCAR-3 ovarian): > 500 µM
- TGI (DMS 273 small cell lung): > 500 µM
- TGI (EKVX NSCLC): > 500 µM
- TGI (KM12 colon): > 500 µM
- TGI (OVCAR-8 ovarian): > 500 µM
- TGI (HOP-62 NSCLC): > 500 µM
- TGI (NCI-H522 lung): > 500 µM
- TGI (A549 NSCLC): > 500 µM
- TGI (KM20L2 colon): > 500 µM
- TGI (CAKI-1 renal): > 500 µM
- TGI (COLO 205 colon): > 500 µM
- TGI (NCI-H460 lung): > 500 µM
- TGI (HOP-18 NSCLC): > 500 µM
- TGI (DLD-1 colon): > 500 µM
- TGI (NCI/ADR-RES ovarian): > 500 µM
- TGI (SNB-78 CNS): > 500 µM
- TGI (SW-620 colon): > 500 µM
- TGI (SK-MEL-5 melanoma): > 500 µM
- TGI (UACC-62 melanoma): > 500 µM
- TGI (SNB-19 CNS): > 79.3 µM
- TGI (NCI-H23 lung): > 500 µM
- TGI (A498 renal): > 23.2 µM
- TGI (OVCAR-4 ovarian): > 500 µM
- TGI (DMS 114 small cell lung): > 500 µM
- TGI (M19-MEL melanoma): > 500 µM
- TGI (HCC-2998 colon): > 500 µM
- TGI (K-562 leukemia): > 500 µM
- TGI (MALME-3M melanoma): > 500 µM
- TGI (SF-295 CNS): > 500 µM
- TGI (P388 leukemia): > 281 µM
- TGI (SF-268 CNS): > 500 µM
- TGI (UO-31 renal): > 500 µM
- TGI (SN12C renal): > 500 µM
- TGI (MOLT-4 leukemia): > 500 µM
- TGI (SNB-75 CNS): > 79.3 µM
- TGI (HCT-116 colon): > 500 µM
- TGI (IGROV1 ovarian): > 500 µM
- TGI (CCRF-CEM leukemia): > 500 µM
- TGI (SK-OV-3 ovarian): > 500 µM
- TGI (HOP-92 NSCLC): > 500 µM
- TGI (HT29 colon): > 500 µM
- TGI (OVCAR-5 ovarian): > 500 µM
- TGI (RPMI-8226 leukemia): > 500 µM
- TGI (LOX IMVI melanoma): > 500 µM
- TGI (NCI-H226 lung): > 500 µM
- TGI (SK-MEL-2 melanoma): > 500 µM
- TGI (U251 CNS): > 500 µM
- TGI (UACC-257 melanoma): > 500 µM
- TGI (SN12K1 renal): > 500 µM
- TGI (HL-60(TB) leukemia): > 281 µM

Compound: O=C1c2cccc(O)c2C(=O)c2c(O)cc(CO)cc21
- TGI (RXF 393 renal): > 100 µM
- TGI (SK-MEL-28 melanoma): > 100 µM
- TGI (HCT-15 colon): > 100 µM
- TGI (XF 498 CNS): > 100 µM
- TGI (DMS 273 small cell lung): > 100 µM
- TGI (KM12 colon): > 100 µM
- TGI (ACHN renal): > 100 µM
- TGI (HOP-62 NSCLC): > 100 µM
- TGI (NCI-H522 lung): 64.6 µM
- TGI (A549 NSCLC): > 100 µM
- TGI (KM20L2 colon): > 100 µM
- TGI (CAKI-1 renal): > 100 µM
- TGI (COLO 205 colon): > 100 µM
- TGI (NCI-H460 lung): > 100 µM
- TGI (HOP-18 NSCLC): > 100 µM
- TGI (DLD-1 colon): > 100 µM
- TGI (SNB-78 CNS): > 100 µM
- TGI (SW-620 colon): > 100 µM
- TGI (SK-MEL-5 melanoma): 30.7 µM
- TGI (SNB-19 CNS): > 100 µM
- TGI (NCI-H23 lung): > 100 µM
- TGI (M14 melanoma): > 100 µM
- TGI (A498 renal): > 100 µM
- TGI (OVCAR-4 ovarian): > 100 µM
- TGI (DMS 114 small cell lung): > 100 µM
- TGI (HCC-2998 colon): > 100 µM
- TGI (MALME-3M melanoma): 83.6 µM
- TGI (SF-295 CNS): > 100 µM
- TGI (SF-268 CNS): > 100 µM
- TGI (SN12C renal): > 100 µM
- TGI (RXF-631 renal): > 100 µM
- TGI (MOLT-4 leukemia): > 100 µM
- TGI (SR leukemia): > 100 µM
- TGI (SNB-75 CNS): > 100 µM
- TGI (HCT-116 colon): > 100 µM
- TGI (TK-10 renal): > 100 µM
- TGI (CCRF-CEM leukemia): > 100 µM
- TGI (SK-OV-3 ovarian): > 100 µM
- TGI (HOP-92 NSCLC): > 100 µM
- TGI (HT29 colon): > 100 µM
- TGI (OVCAR-5 ovarian): > 100 µM
- TGI (RPMI-8226 leukemia): > 100 µM
- TGI (LOX IMVI melanoma): > 100 µM
- TGI (NCI-H226 lung): > 100 µM
- TGI (SK-MEL-2 melanoma): > 100 µM
- TGI (U251 CNS): > 100 µM
- TGI (LXFL 529 NSCLC): > 100 µM
- TGI (UACC-257 melanoma): > 100 µM
- TGI (HL-60(TB) leukemia): > 100 µM
